Measurements as given in patent US7579474B2, “Substituted piperidines as modulators of dopamine neurotransmission” (NSAB, Filial AF Neurosearch AB, Sverige, priority 2004, dated 2009).
Several values for one entry are separate records, joined by “and”; a condition that tells them apart may be missing. Equal entries are not always repeated. Structures can show the parent of a compound that is named as a salt.

Key:
[1] = test system: DOPAC (3,4-dihydroxyphenylacetic acid) in the rat striatum; test: Increase of DOPAC in the rat striatum after systemic administration (in vivo neurochemistry); details: maximal effects limited to 350-400% of control, range covers 95% of fits, Inactive = inactive at 100 μmol/kg; for ED50: sc; for ED50 DOPAC*: s.c.
From the text: After the behavioural activity sessions, the rats were decapitated and their brains rapidly taken out and put on an ice-cold petri-dish. The limbic forebrain, the striatum, the frontal cortex and the remaining hemispheral parts of each rat were dissected and frozen. Each brain part was subsequently analyzed with respect to its content of monoamines and their metabolites.
The monoamine transmitter substances (NA (noradrenaline), DA (dopamine), 5-HT (serotonin)) as well as their amine (NM (normethanephrine), 3-MT (3-methoxytyramine)) and acid (DOPAC (3,4-dihydroxyphenylacetic acid), 5-HIAA (5-hydroxyindoleacetic acid), HVA (homovanillic acid)) metabolites are quantified in brain tissue homogenates by HPLC separations and electrochemical detection.
The analytical method is based on two chromatographic separations dedicated for amines or acids. Two chromatographic systems share a common auto injector with a 10-port valve and two sample loops for simultaneous injection on the two systems. Both systems are equipped with a reverse phase column (Luna C18(2), dp 3 μm, 50*2 mm i.d., Phenomenex) and electrochemical detection is accomplished at two potentials on glassy carbon electrodes (MF-1000, Bioanalytical Systems, Inc.). Via a T-connection the column effluent is passed to the detection cell or to waste. This is accomplished by two solenoid valves, which block either the waste or detector outlet. By not letting the chromatographic front reach the detector, better detection conditions are achieved. The aqueous mobile phase (0.4 ml/min) for the acid system contains Citric Acid 14 mM, Sodium Citrate 10 mM, MeOH 15% (v/v) and EDTA 0.1 mM. Detection potentials relative to Ag/AgCl reference is 0.45 and 0.60V. The aqueous ion pairing mobile phase (0.5 ml/min) for the amine system contains Citric Acid 5 mM, Sodium Citrate 10 mM, MeOH 9% (v/v), MeCN 10.5% (v/v), Decane Sulfonic Acid 0.45 mM, and EDTA 0.1 mM. Detection potentials relative to Ag/AgCl reference is 0.45 and 0.65V.
ED50 values for the increase of DOPAC in striatum are calculated by curve fitting. For most compounds, the evaluation is based on 20 animals over the dose range 0, 3.7, 11, 33 and 100 μmol/kg s.c. in one single experiment. The DOPAC levels are normalised to control and fitted by least square minimization to the function “End-(End-Control)/(1+(dose/ED50)^Slope)”. The four parameters are fitted with the restrictions: ED50>0, 0.5<Slope<3, 350<End<400 or End=200% of control (see table 1). To estimate confidence levels for the parameters, the fit is repeated 100 times with a random evenly distributed squared weight (0 to 1) for every measurement value. Presented ED50-ranges cover 95% of these values.

[2] = test system: Locomotor activity in drug-naive rats; test: Locomotor activity in drug-naive rats; details: for Locomotor activity 0-60 min: drug-naive rats, recorded for 60 minutes; for Locomotor activity 30-60 min: drug-naive habituated rats, recorded between 30 and 60 minutes
[3] = test system: Locomotor activity in MK-801 pre-treated rats; test: Locomotor activity in MK-801 pre-treated rats; details: MK-801 alone, 0.7 mg/kg i.p.; recorded 30-60 minutes; one group per experiment; 0.7 mg/kg
[4] = target: hERG ion channel (Homo sapiens, UniProt Q12809); test: Rb efflux through the hERG ion channel; format: cell-based; details: Rb efflux method
Sequence of hERG ion channel (Q12809 whole entry): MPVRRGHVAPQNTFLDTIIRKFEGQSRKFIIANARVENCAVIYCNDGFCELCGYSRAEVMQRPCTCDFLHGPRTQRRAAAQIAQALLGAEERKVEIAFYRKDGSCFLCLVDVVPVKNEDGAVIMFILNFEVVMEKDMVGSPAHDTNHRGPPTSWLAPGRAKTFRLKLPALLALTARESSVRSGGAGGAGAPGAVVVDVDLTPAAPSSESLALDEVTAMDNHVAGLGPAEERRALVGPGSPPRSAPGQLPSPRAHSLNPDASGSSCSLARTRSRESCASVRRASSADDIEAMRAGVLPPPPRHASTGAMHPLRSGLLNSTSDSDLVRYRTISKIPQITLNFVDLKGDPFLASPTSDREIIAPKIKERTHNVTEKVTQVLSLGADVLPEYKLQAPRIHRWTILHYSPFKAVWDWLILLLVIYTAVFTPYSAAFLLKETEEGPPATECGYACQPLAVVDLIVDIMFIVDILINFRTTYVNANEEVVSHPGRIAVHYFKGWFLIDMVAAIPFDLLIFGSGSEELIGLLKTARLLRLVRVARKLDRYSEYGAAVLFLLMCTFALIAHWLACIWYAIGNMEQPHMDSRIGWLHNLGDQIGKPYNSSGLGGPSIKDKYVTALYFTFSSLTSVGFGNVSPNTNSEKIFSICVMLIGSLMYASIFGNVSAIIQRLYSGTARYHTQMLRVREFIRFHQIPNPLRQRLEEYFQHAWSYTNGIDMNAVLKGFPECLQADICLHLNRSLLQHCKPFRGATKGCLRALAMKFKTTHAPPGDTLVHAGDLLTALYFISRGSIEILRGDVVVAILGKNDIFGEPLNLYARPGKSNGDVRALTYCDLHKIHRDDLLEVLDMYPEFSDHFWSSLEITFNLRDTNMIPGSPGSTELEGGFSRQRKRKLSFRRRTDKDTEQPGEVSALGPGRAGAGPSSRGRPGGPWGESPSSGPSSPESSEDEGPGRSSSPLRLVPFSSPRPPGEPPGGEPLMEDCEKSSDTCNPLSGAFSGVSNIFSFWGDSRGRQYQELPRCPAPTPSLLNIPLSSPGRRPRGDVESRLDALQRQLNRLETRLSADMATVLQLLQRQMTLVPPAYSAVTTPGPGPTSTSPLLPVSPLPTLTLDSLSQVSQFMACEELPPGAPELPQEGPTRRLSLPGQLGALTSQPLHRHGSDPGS
From the text: The substances according to the present invention display a low potency at inhibiting the hERG channel, as measured by IC50 in a Rb+ efflux assay (Development and evaluation of high throughput functional assay methods for hERG potassium channel. Tang W, Kang 1, Wu X, Rampe D, Wang L, Shen H, Li Z, Dunnington D, Garyantes T. J Biomol Screen. 2001 October; 6(5):325-31), indicating a low risk for QT interval prolongation and arrhythmia in man.

## CCCN1CCC(c2cccc(C(F)(F)F)c2)CC1
[1]
  ED50: 84 µmol/kg

## CCCN1CCC(O)(c2cccc(C(F)(F)F)c2OC)CC1
[1]
  ED50 DOPAC*: Inactive***

## CCCCN1CCC(O)(c2cccc(S(C)(=O)=O)c2F)CC1
[1]
  ED50 DOPAC*: Inactive***

## CCN1CCC(O)(c2cc(F)cc(C(F)(F)F)c2)CC1
[1]
  ED50 DOPAC*: Inactive***
[1]; listed as comparative example 10
  ED50 DOPAC*: inactive

## COCCN1CCC(O)(c2cccc(Cl)c2Cl)CC1
[2]; 11 μmol/kg
  Locomotor activity 0-60 min: 7229 ± 769 counts/60 min ± SEM
[2]; 33 μmol/kg
  Locomotor activity 0-60 min: 7669 ± 1029 counts/60 min ± SEM
[2]; 100 μmol/kg
  Locomotor activity 0-60 min: 7542 ± 844 counts/60 min ± SEM

## CCCN1CCC(O)(c2cccc(Cl)c2Cl)CC1 (as salt: hydrochloric acid salt)
other
  melting point: 181 to 183 °C

## COCCN1CCC(O)(c2cccc(Cl)c2Cl)CC1 (as salt: hydrochloric acid salt)
other
  melting point: 135 to 137 °C

## CCCN1CCC(O)(c2cccc(C(F)(F)F)c2F)CC1 (as salt: hydrochloric acid salt) [Example 1, 4-[2-FLUORO-3-(TRIFLUOROMETHYL)PHENYL]-1-PROPYLPIPERIDIN-4-OL]
other
  melting point: 175 to 177 °C

## COCCN1CCC(O)(c2ccc(Cl)c(C(F)(F)F)c2)CC1 (as salt: hydrochloric acid salt) [Example 2, 4-[4-CHLORO-3-(TRIFLUOROMETHYL)PHENYL]-1-(2-METHOXYETHYL)PIPERIDIN-4-OL]
other
  melting point: 181 to 183 °C

## CCN1CCC(O)(c2cccc(C(F)(F)F)c2F)CC1 (as salt: hydrochloric acid salt) [Example 3, 4-[2-FLUORO-3-(TRIFLUOROMETHYL)PHENYL]-1-ETHYLPIPERIDIN-4-OL]
other
  melting point: 177 to 180 °C

## COCCN1CCC(O)(c2cccc(C(F)(F)F)c2F)CC1 (as salt: hydrochloric acid salt) [Example 4, 4-[2-FLUORO-3-(TRIFLUOROMETHYL)PHENYL]-1-(2-M ETHOXYETHYL)PIPERIDIN-4-OL]
other
  melting point: 159 to 160 °C

## CCCCN1CCC(O)(c2cccc(C(F)(F)F)c2F)CC1 (as salt: hydrochloric acid salt) [Example 5, 4-[2-FLUORO-3-(TRIFLUOROMETHYL)PHENYL]-1-BUTYLPIPERIDIN-4-OL]
other
  melting point: 138 °C

## CCCN1CCC(O)(c2ccc(F)c(C(F)(F)F)c2)CC1 (as salt: hydrochloric acid salt) [Example 8, 4-[4-FLUORO-3-(TRIFLUOROMETHYL)PHENYL]-1-PROPYLPIPERIDIN-4-OL]
other
  melting point: 179 to 181 °C

## CCCCN1CCC(O)(c2ccc(C)c(C(F)(F)F)c2)CC1 (as salt: hydrochloric acid salt) [Example 9, 1-BUTYL-4-[4-METHYL-3-(TRIFLUOROMETHYL)-PHENYL]PIPERIDIN-4-OL]
other
  melting point: 197 to 198 °C

## C[C@]12N[C@H](Cc3ccccc31)c1ccccc12 [MK-801, reference compound]
[3]
  Locomotor activity, MK-801 0.7 mg/kg i.p.: 40367 ± 9127 counts/30 min ± SEM and 32169 ± 10605 counts/30 min ± SEM and 30819 ± 12771 counts/30 min ± SEM and 42061 ± 2219 counts/30 min ± SEM and 58370 ± 3007 counts/30 min ± SEM

## CCCN1CCC(O)(c2cccc(S(C)(=O)=O)c2)CC1 [drawing 22]
[1]
  ED50 DOPAC*: Inactive***

## CCCN1CCC(O)(c2cccc(C(F)(F)F)c2F)CC1 [drawing 25]
[1]
  ED50: 13 µmol/kg
[4]
  IC50: 161 µM

## CCN1CCC(O)(c2cccc(C(F)(F)F)c2F)CC1 [drawing 26]
[1]
  ED50: 65 µmol/kg
[4]
  IC50: 424 µM

## COCCN1CCC(O)(c2cccc(C(F)(F)F)c2F)CC1 [drawing 27]
[1]
  ED50: 43 µmol/kg
[4]
  IC50: 350 µM

## CCCCN1CCC(O)(c2cccc(C(F)(F)F)c2F)CC1 [drawing 28]
[1]
  ED50: 13 µmol/kg
[4]
  IC50: 69 µM

## CCCN1CCC(O)(c2ccc(F)c(C(F)(F)F)c2)CC1 [drawing 29]
[1]
  ED50: 76 µmol/kg
[4]
  IC50: 60 µM

## COCCN1CCC(O)(c2ccc(Cl)c(C(F)(F)F)c2)CC1 [drawing 30]
[1]
  ED50: 32 µmol/kg
[4]
  IC50: 68 µM

## CCCCN1CCC(O)(c2ccc(C)c(C(F)(F)F)c2)CC1 [drawing 31]
[1]
  ED50: 56 µmol/kg

## CCN1CCC(O)(c2cccc(C(F)(F)F)c2F)CC1 [drawing 32]
[2]; 11 μmol/kg
  Locomotor activity 0-60 min: 7481 ± 1266 counts/60 min ± SEM
[2]; 33 μmol/kg
  Locomotor activity 0-60 min: 11085 ± 2020 counts/60 min ± SEM
[2]; 100 μmol/kg
  Locomotor activity 0-60 min: 11288 ± 1339 counts/60 min ± SEM

## CCCCN1CCC(O)(c2ccc(C)c(C(F)(F)F)c2)CC1 [drawing 34]
[2]; 11 μmol/kg
  Locomotor activity 0-60 min: 8188 ± 1055 counts/60 min ± SEM
[2]; 33 μmol/kg
  Locomotor activity 0-60 min: 2879 ± 503 counts/60 min ± SEM
[2]; 100 μmol/kg
  Locomotor activity 0-60 min: 2961 ± 928 counts/60 min ± SEM

## CCCN1CCC(O)(c2cccc(Cl)c2Cl)CC1 [drawing 35]
[2]; 11 μmol/kg
  Locomotor activity 0-60 min: 8897 ± 801 counts/60 min ± SEM
[2]; 33 μmol/kg
  Locomotor activity 0-60 min: 9739 ± 2025 counts/60 min ± SEM
[2]; 100 μmol/kg
  Locomotor activity 0-60 min: 7499 ± 1620 counts/60 min ± SEM

## COCCN1CCC(O)(c2ccc(Cl)c(C(F)(F)F)c2)CC1 [drawing 36]
[2]; 11 μmol/kg
  Locomotor activity 0-60 min: 7945 ± 1230 counts/60 min ± SEM
[2]; 33 μmol/kg
  Locomotor activity 0-60 min: 5041 ± 2022 counts/60 min ± SEM
[2]; 100 μmol/kg
  Locomotor activity 0-60 min: 4493 ± 1081 counts/60 min ± SEM

## CCCN1CCC(O)(c2cccc(C(F)(F)F)c2F)CC1 [drawing 37]
[2]; 11 μmol/kg
  Locomotor activity 0-60 min: 11764 ± 3106 counts/60 min ± SEM
[2]; 33 μmol/kg
  Locomotor activity 0-60 min: 7506 ± 905 counts/60 min ± SEM
[2]; 100 μmol/kg
  Locomotor activity 0-60 min: 3698 ± 294 counts/60 min ± SEM

## COCCN1CCC(O)(c2cccc(C(F)(F)F)c2F)CC1 [drawing 38]
[2]; 11 μmol/kg
  Locomotor activity 0-60 min: 6422 ± 1190 counts/60 min ± SEM
[2]; 33 μmol/kg
  Locomotor activity 0-60 min: 6016 ± 1708 counts/60 min ± SEM
[2]; 100 μmol/kg
  Locomotor activity 0-60 min: 4296 ± 847 counts/60 min ± SEM

## CCCCN1CCC(O)(c2cccc(C(F)(F)F)c2F)CC1 [drawing 39]
[2]; 11 μmol/kg
  Locomotor activity 0-60 min: 7668 ± 1716 counts/60 min ± SEM
[2]; 33 μmol/kg
  Locomotor activity 0-60 min: 3213 ± 825 counts/60 min ± SEM
[2]; 100 μmol/kg
  Locomotor activity 0-60 min: 1630 ± 302 counts/60 min ± SEM

## CCCN1CCC(O)(c2ccc(F)c(C(F)(F)F)c2)CC1 [drawing 40]
[2]; 11 μmol/kg
  Locomotor activity 0-60 min: 6114 ± 1032 counts/60 min ± SEM
[2]; 33 μmol/kg
  Locomotor activity 0-60 min: 5906 ± 1340 counts/60 min ± SEM
[2]; 100 μmol/kg
  Locomotor activity 0-60 min: 5546 ± 441 counts/60 min ± SEM

## CCCCN1CCC(O)(c2ccc(C)c(C(F)(F)F)c2)CC1 [drawing 41]
[2]; 11 μmol/kg
  Locomotor activity 30-60 min: 2092 ± 1437 counts/30 min ± SEM
[2]; 33 μmol/kg
  Locomotor activity 30-60 min: 1337 ± 141 counts/30 min ± SEM
[2]; 100 μmol/kg
  Locomotor activity 30-60 min: 1365 ± 460 counts/30 min ± SEM

## CCCN1CCC(O)(c2cccc(C(F)(F)F)c2F)CC1 [drawing 42]
[2]; 11 μmol/kg
  Locomotor activity 30-60 min: 3200 ± 1817 counts/30 min ± SEM
[2]; 33 μmol/kg
  Locomotor activity 30-60 min: 1130 ± 344 (P = 0.06) counts/30 min ± SEM
[2]; 100 μmol/kg
  Locomotor activity 30-60 min: 541 ± 145 counts/30 min ± SEM

## CCCN1CCC(O)(c2ccc(F)c(C(F)(F)F)c2)CC1 [drawing 43]
[2]; 11 μmol/kg
  Locomotor activity 30-60 min: 213 ± 180 counts/30 min ± SEM
[2]; 33 μmol/kg
  Locomotor activity 30-60 min: 436 ± 246 counts/30 min ± SEM
[2]; 100 μmol/kg
  Locomotor activity 30-60 min: 258 ± 134 counts/30 min ± SEM

## CCCN1CCC(c2cccc(C(F)(F)F)c2F)CC1 [reference compound]
[1]
  ED50: 9 µmol/kg
[4]
  IC50: 7.97 µM

## CCCN1CCC(c2cccc(Cl)c2Cl)CC1 [reference compound]
[1]
  ED50: 41 µmol/kg
[4]
  IC50: 5.66 µM

## CCN1CCC(c2ccc(F)c(C(F)(F)F)c2)CC1 [reference compound]
[4]
  IC50: 23 µM
